Results taken from patent US9868763B2, “Modulators of protease activated receptors” (The University of Queensland, priority 2011, dated 2018).

Experiments:
MIN6 beta cells = experiment: Glucose-stimulated insulin secretion (GSIS); assay type: cell-based, mouse; conditions: 52 as pre-treatment before 2f-LIGRLO-NH2
Method: Rat pancreas and mouse MIN6 beta cells were cultured in DMEM (25 mM glucose) supplemented with 15% fetal calf serum, 10 U/mL penicillin, 10 U/mL streptomycin, 2 mM L-glutamine and […] 2-mercaptoethanol. MIN6 beta cells were passaged and harvested using non-enzymatic cell dissociation solution (Sigma-Aldrich). Glucose-stimulated insulin secretion (GSIS) was performed as described next. MIN6 beta cells were seeded at 0.8×106 mL in a 96-well plate and cultured for 48 h. Cells were washed twice with glucose-free Krebs buffer (NaCl 119 mM, KCl 4.74 mM, CaCl2 2.54 mM, MgCl2 1.19 mM, KH2PO4 1.19 mM, NaHCO3 25 mM, HEPES (pH 7.4) 10 mM and 0.05% BSA). Cells were pre-treated with compound 52 for 30 min with Krebs buffer supplemented with 2.5 mM glucose. After incubation, cells were washed twice with glucose-free Krebs buffer. Glucose (2.5 mM and 25 mM) and compounds were added at specified concentration and incubated for 1 h. Supernatants were collected and insulin concentrations were determined by ELISA (Abeam).

PAR2 [1] = target: T1, PAR2 (Mus musculus, UniProt P55086); experiment: Intracellular calcium mobilization in MIN6 beta cells; assay type: cell-based; conditions: concentration-dependent
T1 construct: endogenous in cells; host or cells: MIN6 (mouse pancreatic beta cell line)
T1 sequence (P55086 26-399): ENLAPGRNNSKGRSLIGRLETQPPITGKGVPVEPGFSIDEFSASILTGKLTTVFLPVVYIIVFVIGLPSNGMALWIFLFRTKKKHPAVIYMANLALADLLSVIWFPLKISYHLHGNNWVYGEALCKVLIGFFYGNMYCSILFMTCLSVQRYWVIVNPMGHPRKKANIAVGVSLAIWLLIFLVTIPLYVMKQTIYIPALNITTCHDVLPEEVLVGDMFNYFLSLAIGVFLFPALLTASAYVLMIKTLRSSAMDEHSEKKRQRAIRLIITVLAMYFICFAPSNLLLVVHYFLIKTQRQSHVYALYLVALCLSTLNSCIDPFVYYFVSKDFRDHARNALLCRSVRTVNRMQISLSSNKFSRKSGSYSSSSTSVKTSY
Method: Results: Pathogenesis of pancreatic dysfunction is linked to chronic nutritional surplus and elevated fatty acids, so in vivo and in vitro effects of compound 52 were evaluated on rat pancreas and mouse MIN6 beta cells. […] PAR2 agonists and compound 52 were further evaluated in vitro for glucose-stimulated insulin secretion (GSIS) and intracellular calcium mobilization in mouse MIN6 beta cells.

PAR2 [2] = target: T2, PAR2 (Homo sapiens, UniProt P55085); experiment: Colonocyte modulation: intracellular calcium mobilization in HT29 cells; assay type: cell-based; set-up: endogenous in cells; host or cells: HT29 (human colorectal adenocarcinoma); conditions: HT29 colonocytes, 15 min before 2Furoyl-LIGRLO-NH2
T2 sequence (P55085 26-397): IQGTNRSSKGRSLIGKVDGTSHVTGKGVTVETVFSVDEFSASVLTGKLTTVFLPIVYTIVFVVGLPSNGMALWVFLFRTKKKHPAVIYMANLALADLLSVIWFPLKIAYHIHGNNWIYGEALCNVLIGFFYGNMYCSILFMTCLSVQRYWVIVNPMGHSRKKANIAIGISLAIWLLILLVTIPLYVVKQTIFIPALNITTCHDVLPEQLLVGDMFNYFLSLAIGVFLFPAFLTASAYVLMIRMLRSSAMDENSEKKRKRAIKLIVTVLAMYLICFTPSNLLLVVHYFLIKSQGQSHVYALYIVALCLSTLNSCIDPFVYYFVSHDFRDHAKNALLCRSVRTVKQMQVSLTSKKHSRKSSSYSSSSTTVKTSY
Method: Human colorectal adenocarcinoma (HT29) cells were incubated with a calcium binding dye ([…]) buffer for 1 h at 37° C. […] Intracellular calcium mobilization was measured by differences in fluorescence plotted against corresponding antagonist concentrations, enabling the determination of antagonist potency.

[3] = tested on: 2furoyl-LIGRLO-NH2-induced paw oedema; experiment: PAR2 agonist-induced paw oedema; assay type: in vivo, Wistar rat; conditions: s.c.; 52 10 mg/kg, ENMD-1068 100 mg/kg; agonist 350 μg/paw
Method: The methods used are based on those previously described (Kelso, E. B., et al. Arthritis Rheum 2007, 56, 765-71; Kelso, E. B., et al. J Pharmacol Exp Ther 2006, 316, 1017-24; and Vergnolle, N. J Immunol 1999, 163, 5064-9). Male Wistar rats (n=3 per group) are used. Briefly, rats are given either 5 or 10 mg/kg of a compound of the present invention (p.o. via gavage in olive oil, approx. 500 μL, weight adjusted). Control animals receive only olive oil (500 μL p.o.). Two hours later, the PAR2 agonist 2-furoyl-LIGRLO (350 μg/paw in saline, 100 μL) is injected into the plantar surface (i.pl.) of the right paw pad using a 30 G needle. The left paw acts as a control, receiving saline only. Paw thickness and width are measured after 30 minutes and hourly using digital calipers (World Precision Instruments, USA) and swelling is calculated in area (mm^2; thickness multiplied by width) and expressed as a percentage change from baseline of each individual paw.
Based on previous methods (Kelso E B et al., J Pharmacol Exp Ther 2006, 316(3):1017-24; Suen J Y et al., Br J Pharmacol 2011, doi: 10.1111/j.1476-5381.2011.01610.x.), PAR2 antagonist 52 (10 mg/kg s.c.; n=4), ENMD-1068 (100 mg/kg s.c.; n=4) or vehicle control (DMSO s.c.; n=2) were administered to male Wistar rats. Baseline paw thickness and width were measured using digital calipers (World Precision Instruments, USA) expressed in area (mm^2; thickness×width). Fifteen minutes later, 2Furoyl-LIGLRO-NH2 (350 μg/paw in 100 μL saline) was injected into of the right hind paw pad (intraplantar, i.pl.). The left hind paw acted as a control, receiving saline only. In a separate experiment, vehicle (500 μL olive oil) versus PAR2 antagonist 52 (10 mg/kg p.o. in 500 μL olive oil) only were administered orally to two groups of rats (4 per group). Two hours later, β-tryptase (human recombinant lung, 20 μg in 100 μL saline) was injected into the right hind paw pad (vehicle in left for control) of all animals in each group. In all experiments, paw swelling was measured and expressed in area (mm^2; thickness×width) and plotted as % change from baseline of each individual paw.

[4] = tested on: human monocyte derived macrophages (HMDMs); experiment: Palmitic acid stimulation of human monocyte derived macrophages; assay type: cell-based
Method: To investigate if PAR2 is specifically linked to macrophage inflammation, the effect of palmitic acid on mRNA levels of PARs on human monocyte derived macrophages (HMDMs) was measured (FIG. 12). […] The increase of PAR2 mRNA in HMDM in the presence of palmitic acid was dose-dependent (FIG. 12B). Fold change in PAR2 was calculated relative to untreated sample. FIGS. 12C and D illustrate that palmitic acid stimulates proinflammition cytokines, IL-6 and IL-8, secretion from HMDM. Error bars are means±SEM; *P<0.05, **P<0.01, ***P<0.001.

2f-LIGRLO-NH2 [reference compound]
glucose-stimulated insulin secretion (MIN6 beta cells): inhibited glucose stimulated insulin sensitivity
intracellular calcium release in MIN6 beta cells (PAR2 [1]): activated intracellular calcium release

CC(C)CC(=O)N1CCN(C(=O)CCCCCN)CC1 [ENMD-1068, N1-3-methylbutyryl-N4-6-aminohexanoyl-piperazine, reference compound]
IC50 (PAR2 [2]): 5 mM
paw oedema induced by 2furoyl-LIGRLO-NH2 [3]: had no effect

CCCCCCCCCCCCCCCC(=O)O [palmitic acid]
IL-6 and IL-8 secretion from HMDM [4]: stimulates
increase in mRNA concentrations of PAR2 ([4]; HMDM, concentration dependent, relative to untreated): < 20 fold
